Experimental data taken from the supplement of paper PMC10307832.

Key:
Experiment in all cases: relative viability (nuclei count vs DMSO), 5 days (fraction); higher = more cells survive
VE-821 + Decitabine = compound: CS(=O)(=O)c1ccc(-c2cnc(N)c(C(=O)Nc3ccccc3)n2)cc1 [VE-821] + Nc1ncn([C@H]2C[C@H](O)[C@@H](CO)O2)c(=O)n1 [Decitabine] (partner 2 µM)
Outline: (§1)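 Relative viability was taken as the ratio of nuclei in treated wells to nuclei in vehicle wells. Lung cancer cell lines in 1536-well plates received compounds by pin tool one day after seeding, either one drug alone or a fixed anchor-drug dose plus five library-drug doses (not always all listed) in √10 steps. Nuclei were counted on 4× images after 5 days of treatment, and values are medians of duplicate plates.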

Vismodegib + AZD7762 = compound: CS(=O)(=O)c1ccc(C(=O)Nc2ccc(Cl)c(-c3ccccn3)c2)c(Cl)c1 [Vismodegib] + NC(=O)Nc1cc(-c2cccc(F)c2)sc1C(=O)N[C@H]1CCCNC1 [AZD7762] (partner 0.2 µM)
Outline: as §1

VE-821 + OSI-027 = compound: CS(=O)(=O)c1ccc(-c2cnc(N)c(C(=O)Nc3ccccc3)n2)cc1 [VE-821] + COc1cccc2cc(-c3nc([C@H]4CC[C@H](C(=O)O)CC4)n4ncnc(N)c34)[nH]c12 [OSI-027] (partner 0.5 µM)
Outline: as §1

Vismodegib + Navitoclax = compound: CS(=O)(=O)c1ccc(C(=O)Nc2ccc(Cl)c(-c3ccccn3)c2)c(Cl)c1 [Vismodegib] + CC1(C)CCC(c2ccc(Cl)cc2)=C(CN2CCN(c3ccc(C(=O)NS(=O)(=O)c4ccc(N[C@H](CCN5CCOCC5)CSc5ccccc5)c(S(=O)(=O)C(F)(F)F)c4)cc3)CC2)C1 [Navitoclax] (partner 0.5 µM)
Outline: as §1

Row | Cell Line | relative viability (VE-821 + Decitabine; first compound 0.08 µM) | relative viability (VE-821 + Decitabine; first compound 0.253 µM) | relative viability (VE-821 + Decitabine; first compound 0.8 µM) | relative viability (VE-821 + Decitabine; first compound 2.53 µM) | relative viability (VE-821 + Decitabine; first compound 8 µM) | relative viability (Vismodegib + AZD7762; first compound 0.08 µM) | relative viability (Vismodegib + AZD7762; first compound 0.253 µM) | relative viability (Vismodegib + AZD7762; first compound 0.8 µM) | relative viability (Vismodegib + AZD7762; first compound 2.53 µM) | relative viability (Vismodegib + AZD7762; first compound 8 µM) | relative viability (VE-821 + OSI-027; first compound 0.08 µM) | relative viability (VE-821 + OSI-027; first compound 0.253 µM) | relative viability (VE-821 + OSI-027; first compound 0.8 µM) | relative viability (VE-821 + OSI-027; first compound 2.53 µM) | relative viability (VE-821 + OSI-027; first compound 8 µM) | relative viability (Vismodegib + Navitoclax; first compound 0.08 µM) | relative viability (Vismodegib + Navitoclax; first compound 0.253 µM) | relative viability (Vismodegib + Navitoclax; first compound 0.8 µM) | relative viability (Vismodegib + Navitoclax; first compound 2.53 µM) | relative viability (Vismodegib + Navitoclax; first compound 8 µM)
1 | LK-2 | 0.323 | 0.338 | 0.415 | 0.384 | 0.256 | 0.401 | 0.479 | 0.419 | 0.387 | 0.447 | 0.194 | 0.203 | 0.245 | 0.221 | 0.176 | 0.818 | 0.734 | 0.797 | 0.859 | 0.784
2 | NCI-H1993 | 0.607 | 0.557 | 0.596 | 0.568 | 0.486 | 0.751 | 0.912 | 0.84 | 0.768 | 0.712 | 0.532 | 0.553 | 0.506 | 0.468 | 0.495 | 1.1 | 0.913 | 0.884 | 0.759 | 0.705
3 | HCC-15 | 0.74 | 0.726 | 0.69 | 0.954 | 0.766 | 1.17 | 1.14 | 1.19 | 1.21 | 1.21 | 0.835 | 0.689 | 0.692 | 0.855 | 0.682 | 0.675 | 0.678 | 0.689 | 0.665 | 0.676
4 | NCI-H322M | 0.693 | 0.639 | 0.752 | 0.793 | 0.553 | 0.598 | 0.503 | 0.603 | 0.507 | 0.548 | 0.533 | 0.519 | 0.577 | 0.482 | 0.286 | 1.19 | 1.3 | 1.14 | 1.23 | 1.07
